For 34 compounds, TGI and GI50 results are on record in PubChem BioAssay (NCI).

“And” between values parts separate entries of the source, which are not always exact repeats. Identical values can stand only once.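 Cells were grown in 96-well plates and exposed to each compound for 48 hours at five concentrations; endpoints were interpolated linearly between bracketing concentrations, or set to the highest concentration if not reached. The concentration for 50% growth inhibition is given as GI50. TGI: concentration producing complete growth inhibition.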

Test systems include MDA-N; KM20L2 colon; DLD-1 colon; DMS 114 small cell lung; DMS 273 small cell lung; M19-MEL melanoma; RXF-631 renal; XF 498 CNS; HOP-18 NSCLC.
Common to all, as to assay: NCI tumour cell line growth inhibition, 48 h

The compound `O=S(=O)(O)c1cc(O)c(N=Nc2ccc(O)cc2O)c2ccccc12` had a TGI with MDA-N greater than 100 µM.

As for `O=C([CH-]C(=O)c1ccccc1)c1ccccc1.[CH-]1CCCCC1.[CH-]1CCCCC1.[CH-]1CCCCC1.[Sn+4]`, in the assay with KM20L2 colon, the GI50 was 12.3 µM and the TGI came out at 26.3 µM.

On to `COc1ccc2c3c([nH]c2c1[N+](=O)[O-])C(C)N(Cc1ccccc1)CC3` (stereo not drawn), for which the TGI with DLD-1 colon was greater than 100 µM; in the assay on DMS 114 small cell lung it was greater than 100 µM; with DMS 273 small cell lung, 11.6 µM; in the assay with KM20L2 colon it was greater than 100 µM.

Regarding `COC(=O)C1Cc2c(n(C)c3ccccc23)C(CCC(=O)O)N1Cc1ccccc1` (stereo not drawn), the TGI is greater than 100 µM in the assay with DLD-1 colon; 93.2 µM in the assay with DMS 114 small cell lung; greater than 100 µM in the assay with DMS 273 small cell lung; greater than 100 µM with KM20L2 colon; greater than 100 µM with M19-MEL melanoma; greater than 100 µM in the assay with RXF-631 renal. In the assay on XF 498 CNS, this compound had a TGI of 72.5 µM.

`OC(COC(c1ccccc1)(c1ccccc1)c1ccccc1)C(O)CC1SCCS1` (stereo not drawn) registered a TGI in the assay on MDA-N of 60.1 µM.

For the compound `COC(=O)N/N=C(\C)c1c(O)cc(C)oc1=O`, the TGI with DLD-1 colon, with KM20L2 colon and with RXF-631 renal was greater than 100 µM each time.

For `CC(=O)[O-].Cn1ccnc1CNCc1nccn1C.[Cu+2].[O-][Cl+3]([O-])([O-])[O-]`, the GI50 with DLD-1 colon, with DMS 114 small cell lung, with DMS 273 small cell lung, in the assay on HOP-18 NSCLC and in the assay with KM20L2 colon was greater than 100 µM throughout. The TGI with DLD-1 colon, in the assay on DMS 114 small cell lung, in the assay on DMS 273 small cell lung, with HOP-18 NSCLC and with KM20L2 colon was greater than 100 µM each time.

`N/C(=N\N=C\c1ccc(C(F)(F)F)cc1)NO`: the TGI is greater than 100 µM in the assay on DLD-1 colon; greater than 100 µM in the assay on DMS 114 small cell lung; 59.9 µM with DMS 273 small cell lung; greater than 100 µM with M19-MEL melanoma; 51 µM with XF 498 CNS.

`O=[N+]([O-])C=C(c1ccc(Cl)cc1)c1ccc(Cl)cc1`: the TGI was found to be 32 µM with DLD-1 colon, 28.5 µM with DMS 114 small cell lung, 20.1 µM with DMS 273 small cell lung and 38.9 µM in the assay with KM20L2 colon.

Turning to `Nc1ccc(C(=O)N/C(=C\c2cccc([N+](=O)[O-])c2)c2nc3[nH]c(=S)[nH]c(=O)c3[nH]2)cc1`, the TGI in the assay on DLD-1 colon, in the assay on DMS 114 small cell lung, with KM20L2 colon, in the assay with M19-MEL melanoma, with MDA-N and in the assay with RXF-631 renal was greater than 100 µM in each case. For the same compound, the TGI in the assay with XF 498 CNS was 34.3 µM.

With `CCOC(=O)C(=O)CC1=Nc2ccccc2SC(c2cccc(C)c2)C1` (stereo not drawn), the TGI turned out to be 34.1 µM in the assay on DLD-1 colon; 35 µM in the assay on DMS 114 small cell lung; 37.9 µM in the assay on DMS 273 small cell lung; 32.2 µM in the assay on KM20L2 colon; 40.9 µM with M19-MEL melanoma; 29.4 µM in the assay with RXF-631 renal.

Turning to `CC1/C(=N\O)CC(c2ccccc2)N(C)C1c1ccccc1` (stereo not drawn), the TGI in the assay on DLD-1 colon, with DMS 114 small cell lung, in the assay on DMS 273 small cell lung, in the assay on KM20L2 colon, with M19-MEL melanoma and in the assay with RXF-631 renal was greater than 100 µM in each case.

Consider `CCOP(=O)(OCC)C1CCCOC1=O` (stereo not drawn), for which the TGI in the assay on DLD-1 colon, in the assay with DMS 114 small cell lung, with DMS 273 small cell lung, with HOP-18 NSCLC, in the assay with KM20L2 colon and in the assay with M19-MEL melanoma was greater than 100 µM in each case. The TGI with RXF-631 renal and in the assay on XF 498 CNS was greater than 100 µM in each case.

For the compound `Cc1ccc(S(=O)(=O)SC(C)(C)C)cc1`, the TGI in the assay with DLD-1 colon is 35.3 µM; in the assay on DMS 114 small cell lung, 35.6 µM; in the assay with DMS 273 small cell lung, 47.5 µM; in the assay on HOP-18 NSCLC, greater than 100 µM; with M19-MEL melanoma it was greater than 100 µM; in the assay on RXF-631 renal, greater than 100 µM. Also, the TGI in the assay on XF 498 CNS was 32.1 µM.

For the compound `CC1=C(/C=C/C(C)=C/C2CC(N(C)C)=CC(=O)O2)C(C)(C)CCC1` (stereo not drawn), the TGI in the assay with DLD-1 colon was 32.8 µM; in the assay with DMS 114 small cell lung, 23.8 µM; in the assay with DMS 273 small cell lung, 27.1 µM; with HOP-18 NSCLC, 26.5 µM; in the assay on M19-MEL melanoma, 29.3 µM; in the assay on RXF-631 renal it was 27.8 µM. The compound further gave a TGI in the assay on XF 498 CNS of 25.1 µM.

Take `CCOC(=O)Oc1cc2c(c(OC)c1OC)-c1ccc(OC)c(=O)cc1C(NC(C)=O)CC2` (stereo not drawn): the TGI was 0.0301 µM in the assay with DMS 114 small cell lung; greater than 100 µM with DMS 273 small cell lung; greater than 100 µM in the assay with HOP-18 NSCLC; 0.0866 µM with KM20L2 colon; greater than 100 µM with M19-MEL melanoma; less than 0.0216 µM in the assay on MDA-N. Besides, the values for the TGI with RXF-631 renal and with XF 498 CNS were greater than 22.5 µM and greater than 100 µM, respectively.

`O=C1CC(c2cccc(F)c2)Nc2cc3c(cc21)OCO3` (stereo not drawn): in the assay with MDA-N, the GI50 is less than 0.01 µM; the TGI is 0.0377 µM and < 0.01 µM.

Consider `CC1=C(C(=O)Nc2ccccc2)C(c2cccc3ccccc23)C(C(=O)Nc2ccccc2)=C(C)N1`, for which the TGI in the assay with DLD-1 colon was greater than 100 µM; in the assay on DMS 114 small cell lung, 55.7 µM; with DMS 273 small cell lung it was 40.9 µM; in the assay with HOP-18 NSCLC, 46.8 µM; in the assay on KM20L2 colon, 36.2 µM; with M19-MEL melanoma, 34.5 µM.

In turn, `O=C(/C=C\c1ccc([N+](=O)[O-])cc1)c1ccccc(=O)c1O` came in with a TGI with MDA-N greater than 30.5 µM.

For the compound `CN(C)C(=N/O)/C(=N\O)N(C)C`, the TGI in the assay with DLD-1 colon, in the assay with DMS 114 small cell lung, in the assay on DMS 273 small cell lung, in the assay with HOP-18 NSCLC, with KM20L2 colon and with M19-MEL melanoma was greater than 100 µM in each case. In addition, the TGI with RXF-631 renal and in the assay on XF 498 CNS was greater than 100 µM in each case.

With `O=C(/C=C/c1ccccc1F)c1ccc(Cl)c(Cl)c1`, the TGI with DLD-1 colon was greater than 62.9 µM; with DMS 114 small cell lung, 55.5 µM; in the assay on DMS 273 small cell lung, greater than 100 µM; in the assay with HOP-18 NSCLC, greater than 100 µM; in the assay with KM20L2 colon it was greater than 100 µM; in the assay on M19-MEL melanoma it was 58.1 µM. Further, the TGI was greater than 100 µM in the assay on RXF-631 renal and 77 µM in the assay with XF 498 CNS.

On to `Cc1cccc(C)c1NC(=O)C1=NC(=S)NC(c2ccccc2)C1c1nc2ccccc2s1` (stereo not drawn), for which the TGI in the assay on DLD-1 colon, in the assay with DMS 114 small cell lung, in the assay on DMS 273 small cell lung, with HOP-18 NSCLC, with KM20L2 colon and with M19-MEL melanoma was greater than 100 µM throughout. Moreover, in the assay with XF 498 CNS, the TGI is greater than 100 µM.

As for `O=C(CC1OC(O)C(Cl)=C1Cl)c1cccnc1` (stereo not drawn), the TGI in the assay on DMS 114 small cell lung is greater than 56.5 µM; in the assay on DMS 273 small cell lung it was greater than 100 µM; in the assay with HOP-18 NSCLC, greater than 100 µM; in the assay with KM20L2 colon, greater than 100 µM; in the assay on M19-MEL melanoma it was greater than 100 µM; in the assay on RXF-631 renal, greater than 100 µM. In the assay on XF 498 CNS, the TGI is greater than 100 µM.

Regarding `CN(C)CCNC(=O)c1cccc2cc3c(Cl)cccc3nc12`, the TGI in the assay with DLD-1 colon is 4.46 µM; with DMS 114 small cell lung, 3.69 µM; in the assay on DMS 273 small cell lung it was greater than 100 µM; in the assay on HOP-18 NSCLC, greater than 27.6 µM; with KM20L2 colon, 4.75 µM; with M19-MEL melanoma, 3.18 µM. For the same compound, the results for the TGI in the assay on RXF-631 renal and in the assay with XF 498 CNS were greater than 100 µM and 1.64 µM, respectively.

`O=S(=O)(NNc1ccccc1)c1ccccc1`: the TGI in the assay on MDA-N is 25.3 µM.

For the compound `C[CH2][Ge]([CH2]C)([CH2]C)[O]C(=O)C(OC(C)=O)c1ccccc1` (stereo not drawn), the GI50 in the assay on DLD-1 colon is greater than 100 µM; in the assay with DMS 114 small cell lung, 42.1 µM; in the assay on HOP-18 NSCLC, greater than 100 µM; in the assay on KM20L2 colon, greater than 100 µM; in the assay on M19-MEL melanoma it was greater than 100 µM; with RXF-631 renal it was greater than 100 µM. The TGI in the assay with DLD-1 colon, in the assay on DMS 114 small cell lung, with HOP-18 NSCLC, in the assay with KM20L2 colon, in the assay on M19-MEL melanoma and in the assay on RXF-631 renal was greater than 100 µM throughout. This compound gave a TGI in the assay on XF 498 CNS of 31 µM.

In the assay on MDA-N, `CN(C)c1ccc2oc(=O)c3ccccc3c2c1` displayed a TGI greater than 100 µM.

Regarding `CC(C)(C)C1CCC2c3c([nH]c4ccccc34)C3C(=O)N(c4ccc(Cl)cc4)C(=O)C3C2C1` (stereo not drawn), in the assay with MDA-N, the GI50 was 94.9 µM and > 10 µM; the TGI is greater than 100 µM.

As for `O=C1C(c2ccc(Br)cc2)=[N+]([O-])c2ccccc21`, the TGI turned out to be 25 µM in the assay on DLD-1 colon; 12.2 µM with DMS 114 small cell lung; 27.3 µM with HOP-18 NSCLC; 38.5 µM in the assay with KM20L2 colon; 22.3 µM in the assay on M19-MEL melanoma; 31.3 µM with XF 498 CNS.

In the case of `c1ccc(C2OC3(CCC[C@H]4C[C@H]43)O[C@H]2c2ccccc2)cc1` (stereo partly drawn), the TGI is greater than 100 µM in the assay with DLD-1 colon; 74.9 µM in the assay with DMS 114 small cell lung; greater than 100 µM with DMS 273 small cell lung; greater than 100 µM in the assay on KM20L2 colon; 84.8 µM in the assay on M19-MEL melanoma; greater than 100 µM with RXF-631 renal. The same compound showed a TGI with XF 498 CNS of 43.8 µM.

`CC1CC[P+](c2ccccc2)(c2ccccc2)c2c1ccc1ccccc21` (stereo not drawn): in the assay with MDA-N, the GI50 was 2.98 µM and the TGI was greater than 28.3 µM.

With `O=C1C=CC=C/C1=C1/SC(c2ccccc2)=C(O)N1c1ccccc1`, the TGI in the assay with DMS 114 small cell lung, in the assay with DMS 273 small cell lung, in the assay with KM20L2 colon and with M19-MEL melanoma was greater than 100 µM each time.

With `Cc1cccc(C2SCc3nc4ccccc4n32)c1` (stereo not drawn), the TGI with DLD-1 colon was found to be 75.9 µM; in the assay with DMS 114 small cell lung, 28.3 µM; in the assay on M19-MEL melanoma, 96.8 µM.

`CC(=O)c1c2c(cc3c1CC1(C3)Cc3cc4c(c(C(C)=O)c3C1)CCC4)CCC2`: the TGI in the assay with DLD-1 colon, in the assay on DMS 114 small cell lung, with HOP-18 NSCLC, in the assay with M19-MEL melanoma, with RXF-631 renal and in the assay with XF 498 CNS was greater than 100 µM throughout.
